Assay results from patent publication US4965194A, “Pyruvate oxidase and an analytical method using the same” (Toyo Boseki Kabushiki Kaisha, priority 1986, dated 1990).

Tested on: pyruvate oxidase (EC 1.2.3.3) of Lactobacillus sp. TE6103 (FERM BP-1419)
Assay: Km determination of the thermostable pyruvate oxidase (physicochemical characteristics of the enzyme)
Format: biochemical
Conditions: purified enzyme from Lactobacillus sp. TE6103; activity assay at 37° C., pH 7.0, with thiamine pyrophosphate and FAD; read-out: Km for pyruvic acid
Protocol: The activity of the resulting pyruvate oxidase can be measured as follows:
First, from the mixture of the ingredients listed above, 2.5 ml is sampled and placed in a test tube, and 0.5 ml of a 0.3 M solution of potassium pyruvate is added thereto. The mixture is then heated at 37° C. for 5 minutes. To this, 0.05 ml of the enzyme solution is added, and the mixture gently stirred; then, the changes (ΔOD) in the optical density at 500 nm over 1 minute of the mixture at 37° C. are monitored in a spectrophotometer against water. Next, in place of the enzyme solution, 0.05 ml of a 50 mM potassium phosphate buffer (pH 7.0) is used, and the same steps as above are followed to measure the changes (ΔOD) in optical density over 1 minute; this is the blank test. Under these conditions, the enzyme activity of pyruvate oxidase that produces 1 μmol of hydrogen peroxide is taken to be one unit (U).
The physicochemical characteristics of the enzyme activity of this invention will be shown below.

`CC(=O)C(=O)O` [pyruvic acid] gave a Km of ~400 µM.
